Measurements reported in PubChem BioAssay (NCI).
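Test compounds were applied to cells in 96-well plates for 48 hours at 5 doses. GI50 = concentration required for 50% inhibition of growth. TGI: total growth inhibition.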

Key:
Assay in all cases: NCI anticancer screen, dose series, 48 h
[1] = test system: 786-0 renal
[2] = test system: A498 renal
[3] = test system: A549 NSCLC
[4] = test system: ACHN renal
[5] = test system: BT-549 breast
[6] = test system: CAKI-1 renal
[7] = test system: COLO 205 colon
[8] = test system: DU-145 prostate
[9] = test system: EKVX NSCLC
[10] = test system: HCC-2998 colon
[11] = test system: HCT-116 colon
[12] = test system: HCT-15 colon
[13] = test system: HOP-62 NSCLC
[14] = test system: HS 578T breast
[15] = test system: HT29 colon
[16] = test system: IGROV1 ovarian
[17] = test system: K-562 leukemia
[18] = test system: KM12 colon
[19] = test system: LOX IMVI melanoma
[20] = test system: M14 melanoma
[21] = test system: MALME-3M melanoma
[22] = test system: MCF7 breast
[23] = test system: MDA-MB-435
[24] = test system: MOLT-4 leukemia
[25] = test system: NCI-H23 lung
[26] = test system: NCI-H460 lung
[27] = test system: NCI-H522 lung
[28] = test system: NCI/ADR-RES ovarian
[29] = test system: OVCAR-4 ovarian
[30] = test system: OVCAR-5 ovarian
[31] = test system: OVCAR-8 ovarian
[32] = test system: RXF 393 renal
[33] = test system: SF-268 CNS
[34] = test system: SF-295 CNS
[35] = test system: SF-539 CNS
[36] = test system: SK-MEL-2 melanoma
[37] = test system: SK-MEL-28 melanoma
[38] = test system: SK-MEL-5 melanoma
[39] = test system: SK-OV-3 ovarian
[40] = test system: SNB-19 CNS
[41] = test system: SNB-75 CNS
[42] = test system: SR leukemia
[43] = test system: SW-620 colon
[44] = test system: TK-10 renal
[45] = test system: U251 CNS
[46] = test system: UACC-257 melanoma
[47] = test system: UACC-62 melanoma
[48] = test system: UO-31 renal

Question: Which GI50 [1] does the source give for `CCN(CC)c1ccc2c(c1)Oc1nc(N)c(C#N)c(N)c1C2Sc1ccc(F)cc1` (stereo unspecified) here?
Answer: 1560 nM

Question: And the TGI [1]?
Answer: 3020 nM

Question: And the GI50 [2]?
Answer: 1930 nM

Question: And the TGI [2]?
Answer: 3910 nM

Question: And the GI50 [3]?
Answer: 1790 nM

Question: And the TGI [3]?
Answer: 3340 nM

Question: What about the GI50 [4] of the same molecule?
Answer: 1500 nM

Question: What about the TGI [4] of the same molecule?
Answer: 2820 nM

Question: And the GI50 [5]?
Answer: 1070 nM

Question: And the TGI [5]?
Answer: 2310 nM

Question: And the GI50 [6]?
Answer: 1550 nM

Question: What about the TGI [6] of the same molecule?
Answer: 2910 nM

Question: And the GI50 [7]?
Answer: 1220 nM

Question: And the TGI [7]?
Answer: 2670 nM

Question: What about the GI50 [8] of the same molecule?
Answer: 1650 nM

Question: And the TGI [8]?
Answer: 3010 nM

Question: And the GI50 [9]?
Answer: 661 nM

Question: And the TGI [9]?
Answer: 2060 nM

Question: And the GI50 [10]?
Answer: 1730 nM

Question: What about the TGI [10] of the same molecule?
Answer: 3300 nM

Question: And the GI50 [11]?
Answer: 1140 nM

Question: And the TGI [11]?
Answer: 2660 nM

Question: What about the GI50 [12] of the same molecule?
Answer: 984 nM

Question: And the TGI [12]?
Answer: 2450 nM

Question: And the GI50 [13]?
Answer: 1830 nM

Question: And the TGI [13]?
Answer: 3420 nM

Question: What about the GI50 [14] of the same molecule?
Answer: 1610 nM

Question: And the TGI [14]?
Answer: 4610 nM

Question: And the GI50 [15]?
Answer: 1530 nM

Question: What about the TGI [15] of the same molecule?
Answer: 3320 nM

Question: And the GI50 [16]?
Answer: 1050 nM

Question: And the TGI [16]?
Answer: 2380 nM

Question: What about the GI50 [17] of the same molecule?
Answer: 308 nM

Question: And the TGI [17]?
Answer: > 100000 nM

Question: And the GI50 [18]?
Answer: 1210 nM

Question: What about the TGI [18] of the same molecule?
Answer: 2490 nM

Question: And the GI50 [19]?
Answer: 433 nM

Question: What about the TGI [19] of the same molecule?
Answer: 1530 nM

Question: What about the GI50 [20] of the same molecule?
Answer: 1490 nM

Question: What about the TGI [20] of the same molecule?
Answer: 3010 nM

Question: What about the GI50 [21] of the same molecule?
Answer: 1670 nM

Question: And the TGI [21]?
Answer: 3090 nM

Question: And the GI50 [22]?
Answer: 1000 nM

Question: And the TGI [22]?
Answer: 2840 nM

Question: What about the GI50 [23] of the same molecule?
Answer: 1330 nM

Question: What about the TGI [23] of the same molecule?
Answer: 2730 nM

Question: And the GI50 [24]?
Answer: 315 nM

Question: What about the TGI [24] of the same molecule?
Answer: > 100000 nM

Question: And the GI50 [25]?
Answer: 1370 nM

Question: And the TGI [25]?
Answer: 2900 nM

Question: And the GI50 [26]?
Answer: 1280 nM

Question: What about the TGI [26] of the same molecule?
Answer: 2750 nM

Question: And the GI50 [27]?
Answer: 1800 nM

Question: And the TGI [27]?
Answer: 3310 nM

Question: And the GI50 [28]?
Answer: 2280 nM

Question: And the TGI [28]?
Answer: 5880 nM

Question: And the GI50 [29]?
Answer: 1750 nM

Question: What about the TGI [29] of the same molecule?
Answer: 3180 nM

Question: And the GI50 [30]?
Answer: 1380 nM

Question: And the TGI [30]?
Answer: 2780 nM

Question: And the GI50 [31]?
Answer: 1600 nM

Question: What about the TGI [31] of the same molecule?
Answer: 3020 nM

Question: What about the GI50 [32] of the same molecule?
Answer: 1710 nM

Question: And the TGI [32]?
Answer: 3170 nM

Question: What about the GI50 [33] of the same molecule?
Answer: 1540 nM

Question: What about the TGI [33] of the same molecule?
Answer: 2990 nM

Question: What about the GI50 [34] of the same molecule?
Answer: 1700 nM

Question: And the TGI [34]?
Answer: 3160 nM

Question: What about the GI50 [35] of the same molecule?
Answer: 1330 nM

Question: What about the TGI [35] of the same molecule?
Answer: 2620 nM

Question: And the GI50 [36]?
Answer: 1690 nM

Question: And the TGI [36]?
Answer: 3100 nM

Question: What about the GI50 [37] of the same molecule?
Answer: 1520 nM

Question: And the TGI [37]?
Answer: 2890 nM

Question: And the GI50 [38]?
Answer: 1760 nM

Question: What about the TGI [38] of the same molecule?
Answer: 3170 nM

Question: What about the GI50 [39] of the same molecule?
Answer: 2040 nM

Question: And the TGI [39]?
Answer: 3630 nM

Question: And the GI50 [40]?
Answer: 1410 nM

Question: And the TGI [40]?
Answer: 2740 nM

Question: What about the GI50 [41] of the same molecule?
Answer: 1490 nM

Question: And the TGI [41]?
Answer: 2820 nM

Question: And the GI50 [42]?
Answer: 334 nM

Question: And the TGI [42]?
Answer: > 100000 nM

Question: And the GI50 [43]?
Answer: 1080 nM

Question: And the TGI [43]?
Answer: 2410 nM

Question: And the GI50 [44]?
Answer: 2690 nM

Question: What about the TGI [44] of the same molecule?
Answer: 4210 nM

Question: What about the GI50 [45] of the same molecule?
Answer: 1230 nM

Question: What about the TGI [45] of the same molecule?
Answer: 2560 nM

Question: And the GI50 [46]?
Answer: 1860 nM

Question: And the TGI [46]?
Answer: 3330 nM

Question: And the GI50 [47]?
Answer: 1630 nM

Question: What about the TGI [47] of the same molecule?
Answer: 3100 nM

Question: And the GI50 [48]?
Answer: 1120 nM

Question: And the TGI [48]?
Answer: 2330 nM
